Experimental data as given in ChEMBL document CHEMBL1156475, “Efficient inhibition of class A and class D beta-lactamases by Michaelis complexes” (J Biol Chem, 2007).
pIC50: −log10 of the molar value.

Tests used:
[1] = Inhibition of beta lactamase TEM1
[2] = Inhibition of beta lactamase SHV1
[3] = target: Beta-lactamase OXA-1 (Escherichia coli) (UniProt P13661); assay: Inhibition of Escherichia coli beta lactamase OXA-1
[4] = Inhibition of beta lactamase P99

Beta-lactamase OXA-1 (Escherichia coli), sequence (P13661 whole entry): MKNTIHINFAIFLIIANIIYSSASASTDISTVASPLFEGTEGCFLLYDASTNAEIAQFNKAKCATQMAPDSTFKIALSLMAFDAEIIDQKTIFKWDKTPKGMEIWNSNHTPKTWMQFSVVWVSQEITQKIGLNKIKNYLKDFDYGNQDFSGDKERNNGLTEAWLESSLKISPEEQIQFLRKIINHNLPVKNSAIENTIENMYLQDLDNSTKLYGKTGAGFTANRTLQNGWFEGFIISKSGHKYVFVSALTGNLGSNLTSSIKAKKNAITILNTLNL

Compound | pIC50 [1] | Kinact [2] [nM] | Kinact [3] [µM] | pIC50 [4]
C[C@]1(COC(=O)Cc2ccccc2)[C@H](C(=O)O)N2C(=O)/C(=C/c3ccccn3)[C@H]2S1(=O)=O | 7.40 | 42 | 1 | 9.00
C[C@]1(Cn2ccnn2)[C@H](C(=O)O)N2C(=O)C[C@H]2S1(=O)=O |  | 330 |  | 
